This note sets out measurements from PMC6635429, “A 4-cyano-3-methylisoquinoline inhibitor of Plasmodium falciparum growth targets the sodium efflux pump PfATP4” (Scientific Reports, 2019).

Usually IC50 stands for the concentration needed to halve the response being measured.

Common to all, as to type: biochemical
Assay [1] addresses T1, PfATP4 (Plasmodium falciparum, UniProt A0A143ZZK9).
T1 construct: gene ATP4; native PfATP4 in P. falciparum membrane preparations (3D7)
The experiment in a line: cipargamin-sensitive Na+-dependent ATPase activity (Pi release) in parasite membranes.

The target in assay [2] is T1, PfATP4. The experiment in a line: cipargamin-sensitive Na+-dependent ATPase activity (Pi release) in parasite membranes; resistance mutation S374R.
For assay [3], the target named is T2, PfATP4 (Plasmodium falciparum, UniProt A0A143ZZK9, S374R).
T2 construct: gene ATP4; PfATP4 S374R in membranes from B7 parasites
T2 sequence (A0A143ZZK9 1-1264 S374R): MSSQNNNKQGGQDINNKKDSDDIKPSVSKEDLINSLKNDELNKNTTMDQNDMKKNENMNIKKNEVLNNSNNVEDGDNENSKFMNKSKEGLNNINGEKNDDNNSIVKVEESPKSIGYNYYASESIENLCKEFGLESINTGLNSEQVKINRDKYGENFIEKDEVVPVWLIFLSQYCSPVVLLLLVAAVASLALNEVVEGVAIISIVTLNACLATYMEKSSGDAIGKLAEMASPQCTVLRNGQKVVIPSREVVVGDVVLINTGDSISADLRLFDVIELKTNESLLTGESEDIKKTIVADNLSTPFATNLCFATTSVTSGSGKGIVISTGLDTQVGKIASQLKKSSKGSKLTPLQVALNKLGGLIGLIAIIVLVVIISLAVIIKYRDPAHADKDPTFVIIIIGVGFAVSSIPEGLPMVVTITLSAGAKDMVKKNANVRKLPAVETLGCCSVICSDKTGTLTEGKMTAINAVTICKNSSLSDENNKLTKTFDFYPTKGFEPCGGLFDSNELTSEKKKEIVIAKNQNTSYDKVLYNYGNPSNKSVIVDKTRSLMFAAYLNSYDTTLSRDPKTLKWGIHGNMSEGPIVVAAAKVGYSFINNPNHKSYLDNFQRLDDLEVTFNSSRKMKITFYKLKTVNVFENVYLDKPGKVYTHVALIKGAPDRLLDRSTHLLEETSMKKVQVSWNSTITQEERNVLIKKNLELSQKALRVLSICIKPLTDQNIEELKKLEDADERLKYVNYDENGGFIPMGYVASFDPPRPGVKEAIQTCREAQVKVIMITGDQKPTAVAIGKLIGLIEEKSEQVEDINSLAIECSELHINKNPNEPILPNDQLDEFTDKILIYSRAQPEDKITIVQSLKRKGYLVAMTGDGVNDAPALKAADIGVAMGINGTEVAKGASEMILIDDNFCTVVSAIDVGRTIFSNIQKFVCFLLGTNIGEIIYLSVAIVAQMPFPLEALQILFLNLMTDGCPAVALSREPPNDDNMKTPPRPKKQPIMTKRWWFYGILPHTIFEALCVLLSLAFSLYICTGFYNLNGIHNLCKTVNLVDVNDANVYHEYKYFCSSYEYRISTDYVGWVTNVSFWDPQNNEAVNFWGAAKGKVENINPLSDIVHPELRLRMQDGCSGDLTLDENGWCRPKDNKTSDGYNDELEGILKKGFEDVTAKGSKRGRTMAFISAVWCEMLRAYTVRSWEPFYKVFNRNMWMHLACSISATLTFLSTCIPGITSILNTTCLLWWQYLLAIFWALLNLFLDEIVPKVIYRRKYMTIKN
The experiment in a line: cipargamin-sensitive Na+-dependent ATPase activity (Pi release) in membranes of resistant parasites.

On PfATP4 [1], `Cc1nc(N[C@@H](C)c2ccccc2)c2ccccc2c1C#N` [MB10] displayed an IC50 of 62 ± 9 nM. Regarding `CCC(CC)Nc1nc(C)c(C#N)c2ccccc12` [MB14, 3-methyl-1-(1-ethylpropylamino)isoquinoline-4-carbonitrile], the figures for the IC50 against PfATP4 [2] and against PfATP4 [3] were 52 ± 16 nM and 429 ± 73 nM, respectively.
